In ChEMBL document CHEMBL3430912, “GSK Tres Cantos Anti-Kinetoplastid Screening (TCAKS) Data”:

Assays:
Trypanosoma cruzi [1] = experiment: GSK_TCAKS: pIC50 Trypanosoma cruzi viability assay using beta-GAL activity. This assay was run at single shot at 5uM compound concentration per well. The biological reagents consisted of NIH-3T3 host cells and trypomastigotes parasitic cells; both cell types were set to a 3.3 * 10^5 cells/mL dilution in assay DMEM by means of a CASY cell counter device using a 60um capillary. 6 uL of the mixture were dispensed per well (about 1 * 10^3 host-cells and 1 * 10^3 parasites) with a Multidrop Combi dispenser. […] In all wells, the percentage of DMSO never exceeded 0.5%. Plates incubated for four days at 37C, 5% CO2. The substrate used for the assay fluorescence intensity (FLINT) readout was resorufin-beta-D-galactopiranoside (Sigma-Aldrich) at 5uM per well. It was diluted in PBS supplemented with the soft detergent Igepal (Fluka).; type: functional, organism-based, Mus musculus; conditions: Tulahuen, NIH3T3
Trypanosoma cruzi [2] = experiment: (§1) GSK_TCAKS: pIC50 Trypanosoma cruzi Imaging: Infected Cells. […] Cells were then washed once with PBS before infection. T. cruzi trypomastigotes, collected at days 5 to 8 after infection from LLC-MK2 parasite infected cultures, were allowed to swim out for 4h at 37C from a centrifuged pellet (2,500 rpm/10 min/room temperature). Trypomastigotes were then collected and counted in a CASY Cell Counter. Trypomastigotes, in supplemented DMEM, were added to H9c2 cultures in a multiplicity of infection of 1 and incubated for 18 h. Cells were washed once with PBS before incubation of the infected H9c2 monolayer with trypsin (Life-Technologies) to detach cells from the flask. Cells were counted in a CASY Cell Counter using a 150 um capillary and their density set at 5 * 10^4 cells per mL in supplemented assay DMEM. Infected H9c2 were dispensed into 384-well poly-lysine coated assay plates at 50uL per well using a Multidrop Combi dispenser. After seeding them, the plates were incubated at 37C, 5% CO2 for 72h. Cultures were then fixed and stained by addition of 50 uL of a solution containing 8% formaldehyde and 4 uM DRAQ5 DNA dye (BioStatus, UK) per well. […] Five images were collected per well for reliable statistical analysis. Automated image analysis was performed with a script developed on Acapella High Content Imaging and Analysis Software (PerkinElmer). Output: percentage of infected cells per well as a second infection marker.; type: functional, organism-based, Rattus norvegicus; conditions: H9c2, 4 h
Trypanosoma cruzi [3] = experiment: GSK_TCAKS: pIC50 Trypanosoma cruzi Imaging: Amastigotes/Cell. […] Cells were then washed once with PBS before infection. T. cruzi trypomastigotes, collected at days 5 to 8 after infection from LLC-MK2 parasite infected cultures, were allowed to swim out for 4h at 37C from a centrifuged pellet (2,500 rpm/10 min/room temperature). Trypomastigotes were then collected and counted in a CASY Cell Counter. Trypomastigotes, in supplemented DMEM, were added to H9c2 cultures in a multiplicity of infection of 1 and incubated for 18 h. Cells were washed once with PBS before incubation of the infected H9c2 monolayer with trypsin (Life-Technologies) to detach cells from the flask. Cells were counted in a CASY Cell Counter using a 150 um capillary and their density set at 5 * 10^4 cells per mL in supplemented assay DMEM. Infected H9c2 were dispensed into 384-well poly-lysine coated assay plates at 50uL per well using a Multidrop Combi dispenser. After seeding them, the plates were incubated at 37C, 5% CO2 for 72h. Cultures were then fixed and stained by addition of 50 uL of a solution containing 8% formaldehyde and 4 uM DRAQ5 DNA dye (BioStatus, UK) per well. […] Five images were collected per well for reliable statistical analysis. Automated image analysis was performed with a script developed on Acapella High Content Imaging and Analysis Software (PerkinElmer). Output: number of amastigotes per cell as infection level measurement.; type: functional, organism-based, Rattus norvegicus; conditions: H9c2, 4 h
Trypanosoma cruzi [4] = experiment: as §1, with “H2C9” for “Trypanosoma cruzi”, “H9c2 Host Cardiomyocytes.” for “Infected Cells.”, “Number” for “percentage”, “H9c2 Host Cardiomyocytes nuclei to determine drug-related cytotoxicity.” for “infected cells per well as a second infection marker.”; type: functional, organism-based, Rattus norvegicus; conditions: H9c2, 4 h
Leishmania donovani [5] = experiment: GSK_TCAKS: pIC50 Leishmania donovani viability assay using fluorescence intensity. Assay plates (1536-well) were prepared by adding 30nL per well of compound. For single shot assay, the final compound concentration was 5uM. […] Briefly, eGFP LdBOB axenic amastigotes were harvested, fixed and counted in a CASY cell counter (Roche-Applied Science). A final concentration of 1.5 * 10^5 cells per well were prepared in amastigote media containing 500 U/mL penicillin/streptomycin (Invitrogen) and 6uL was dispensed to each experimental well using a Multidrop Combi dispenser (Thermo Scientific). 6uL of assay media was dispensed to control columns used as reference for 100% compound response. Following incubation for 72 h at 37C, 5% CO2, 2 uL of resazurin was added to each well at a final concentration of 0.5 mM in phosphate buffered saline (PBS) with IGEPAL (Sigma-Aldrich), 0.05% (v/v).; type: functional, organism-based
Leishmania donovani [6] = experiment: (§2) GSK_TCAKS: pIC50 Leishmania donovani Imaging: Infected Macrophages. Assay plates (384-well) were prepared by adding 250nL of compound to each well. For single shot assay, the final compound concentration was 5 uM. […] Automated image analysis was performed with a script developed on Acapella High Content Imaging and Analysis Software (PerkinElmer). Output: Percent of infected macrophage cells were reported for each well.; type: functional, organism-based, Homo sapiens; conditions: THP-1
Leishmania donovani [7] = experiment: as §2, with “Amastigotes/Macrophages.” for “Infected Macrophages.”, “Average number” for “Percent”, “amastigotes per” for “infected”, “cell” for “cells”; type: functional, organism-based, Homo sapiens; conditions: THP-1
Leishmania donovani [8] = experiment: as §2, with “THP-1 Host” for “Infected”, “THP-1 cell count” for “Percent of infected macrophage cells”; type: functional, organism-based, Homo sapiens
[9] = tested on: Trypanosoma brucei brucei; experiment: GSK_TCAKS: pIC50 Trypanosoma brucei viability assay using fluorescence intensity. Assay plates (1536-well) were prepared by dispensing 25nL of compound solution per well using an Echo acoustic dispenser (Labcyte).; type: functional, organism-based; conditions: Lister 427, 2 h
[10] = tested on: Trypanosoma brucei brucei; experiment: GSK_TCAKS: pIC50 Trypanosoma brucei viability assay using luminiscence. Assay plates (1536-well) were prepared. T. brucei cultures were harvested and counted in a CASY cell counter. A parasite suspension was prepared at a final concentration of 5 * 10^4 cells/mL in complete HMI9 medium and 6uL was dispensed to all wells containing compounds using a Multidrop Combi dispenser. 6uL of HMI9 media with 0.4% DMSO were dispensed to control columns. Plates were incubated for 24 h at 37C, 5% CO2 then tempered for 10 min at room temperature. ATP content was quantified by adding 4 uL of CellTiter-Glo Reagent (Promega) according to the manufacturer's instructions. Luminescence was measured using a ViewLux.; type: functional, organism-based; conditions: Lister 427, CASY
[11] = GSK_TCAKS: pIC50 HepG2 human cell line viability assay using luminiscence. […] Seeding density was checked to ensure that new mono-layers were not more than 50% confluent at the time of harvesting. Cell suspension was added to 500 mL of the same medium at a final density of 1.2 * 10^5 cells/mL. This cell suspension was dispensed (25 uL, 3000 cells per well) into 384-well clear-bottom plates using a Multidrop Combi dispenser. Prior to addition of the cell suspension, the screening compounds (250 nL) were pre-dispensed into the plates with an Echo liquid handler. Plates were incubated for 48 h at 37C, 5% CO2. After incubation, plates equilibrated at room temperature for 30 min before proceeding to develop the luminescent signal. The signal developer, CellTiter-Glo Reagent, was allowed to equilibrate at room temperature for 30 min and added to the plates (25uL per well) using a Multidrop Combi dispenser. Plates were left for 10 min at room temperature for stabilization and then read using a ViewLux.; type: toxicity, cell-based
[12] = target: Sterol 14-alpha demethylase (Trypanosoma cruzi (strain CL Brener), UniProt Q7Z1V1); experiment: GSK_TCAKS: pIC50 CYP51 from Trypanosoma cruzi.; type: functional
Sterol 14-alpha demethylase, sequence (Q7Z1V1 whole entry): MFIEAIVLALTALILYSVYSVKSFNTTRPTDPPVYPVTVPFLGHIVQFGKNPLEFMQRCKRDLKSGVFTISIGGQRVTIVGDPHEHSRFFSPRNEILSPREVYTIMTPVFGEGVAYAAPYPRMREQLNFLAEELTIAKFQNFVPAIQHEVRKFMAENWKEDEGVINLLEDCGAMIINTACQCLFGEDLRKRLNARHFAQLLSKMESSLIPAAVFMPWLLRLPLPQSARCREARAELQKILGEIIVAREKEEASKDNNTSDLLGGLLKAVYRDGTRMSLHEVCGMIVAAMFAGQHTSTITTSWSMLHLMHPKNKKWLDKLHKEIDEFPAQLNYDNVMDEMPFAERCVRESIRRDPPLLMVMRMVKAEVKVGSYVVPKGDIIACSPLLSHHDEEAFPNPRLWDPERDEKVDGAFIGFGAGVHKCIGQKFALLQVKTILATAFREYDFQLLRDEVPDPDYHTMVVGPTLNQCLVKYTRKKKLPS

Compound | IC50 (Trypanosoma cruzi [1]) [µM] | IC50 (Trypanosoma cruzi [2]) [µM] | IC50 (Trypanosoma cruzi [3]) [µM] | IC50 (Trypanosoma cruzi [4]) [µM] | IC50 (Leishmania donovani [5]) [µM] | IC50 (Leishmania donovani [6]) [µM] | IC50 (Leishmania donovani [7]) [µM] | IC50 (Leishmania donovani [8]) [µM] | IC50 [9] [µM] | IC50 [10] [µM] | IC50 at 48 h [11] [µM] | IC50 [12] [µM]
CC(c1ccc2c(c1)CCCC2)N(C)c1ncc2c(N)nc(N)nc2n1 (centres undefined) | 0.0316 | 0.0316 | 0.01 | 10 | 2.51 | 2 | 0.794 | 25.1 | 15.8 | 12.6 | 50.1 | 25.1
CC(c1cc(Cl)cc(Cl)c1)N(C)c1ncc2c(N)nc(N)nc2n1 (centres undefined) | 0.0631 | 0.002 | 0.001 | 7.94 | 0.794 | 0.794 | 0.251 | 31.6 | > 39.8 | 31.6 | 63.1 | 39.8
COc1ccnc2[nH]cc(-c3cc(C(=O)N[C@H](CO)c4ccccc4)co3)c12 | 1.26 | 20 | 7.94 | 0.316 | 25.1 | 7.94 | 2 | 0.794 | 0.00501 | 0.0126 | 15.8 | 0.794
COc1ccc(-c2cnc(NC(=O)c3cc(-c4ccccn4)n[nH]3)n2C)cc1 | 3.55 | 5.01 | 3.98 | > 50.1 | 3.98 | 1 | 0.794 | > 50.1 | 0.398 | 10 | > 100 | 15.8
CCCc1cc(C(=O)Nc2ncc(-c3cccc(Br)c3)n2C)[nH]n1 | 2.51 | 3.98 | 2.51 | > 50.1 | 6.31 | 5.01 | 3.98 | 31.6 | 2.51 | 1.26 | > 100 | 25.1
Cc1nn2c(NCCCO)c3c(nc2c1-c1cccs1)CCC3 | 15.8 | 50.1 | 5.01 | > 50.1 | 2 | > 50.1 | > 50.1 | > 50.1 | 0.316 | 0.398 | > 100 | 25.1
CC(C)S(=O)(=O)c1ccc(-c2cnc(N)c3cc(-c4ccnc(N)n4)ccc23)cc1 | 0.794 | 39.8 | 12.6 | 0.501 | 2 | 1.26 | 0.501 | 2.51 | 0.2 | 0.251 | 15.8 | 15.8
Cc1cc(Oc2cc(Cl)c(Cl)cc2Cl)n2ncnc2n1 | 5.01 | 25.1 | 10 | 7.94 | 15.8 | 15.8 | 12.6 | 10 | 0.794 | 0.398 | 31.6 | > 100
COc1cnc2ccc(=O)n(CCN3CCC(NC(=O)c4ccc(Cl)cc4)CC3)c2c1 | 0.126 | 0.251 | 0.0794 | 0.631 | 2 | > 50.1 | 3.98 | > 50.1 | 0.0794 | 0.1 | > 100 | 10
CCn1c(-c2nonc2N)nc2c([C@@H](C)O)ncc(O[C@H](CN)c3ccccc3)c21 | 7.94 | 10 | 7.94 | 0.631 | 20 | 5.01 | 3.16 | 3.16 | 0.631 | 0.794 | 79.4 | 25.1
Cc1nn(-c2nc3ccccc3s2)c2c1C(c1ccc(OCC(N)=O)cc1)SCC(=O)N2 (centres undefined) | 5.01 | > 50.1 | > 50.1 | > 50.1 | > 50.1 | > 50.1 | > 50.1 | > 50.1 | 0.02 | 0.0316 | > 100 | > 100
COc1cc(C2SCC(=O)Nc3c2c(C)nn3-c2nc3ccccc3s2)cc(OC)c1O (centres undefined) | > 50.1 | > 50.1 | > 50.1 | > 50.1 | 6.31 | 0.316 | 0.251 | > 50.1 | 6.31 | > 39.8 | > 100 | 5.01
Cc1ccccc1NS(=O)(=O)c1ccc2[nH]cc(C(=O)NC3CCCC(C)C3C)c(=O)c2c1 (centres undefined) | 5.01 | 6.31 | 3.16 | 6.31 | 25.1 | 15.8 | 15.8 | 12.6 | 0.316 | 0.631 | 39.8 | 5.01
COCCn1cnc2cc(NC(=O)C3CCCCC3)cc(C(=O)N3CCc4sccc4C3)c21 | 20 | 31.6 | 20 | > 50.1 | > 50.1 | > 50.1 | > 50.1 | > 50.1 | 0.794 | 1 | > 100 | 50.1
CCC(=O)Nc1ccccc1C(=O)Nc1ccccn1 | > 50.1 | > 50.1 | > 50.1 | > 50.1 | > 50.1 | > 50.1 | > 50.1 | > 50.1 | 0.316 | 0.398 | > 100 | > 100
COc1ncc(-c2ccc3nccc(-c4ccncc4)c3c2)cc1NS(=O)(=O)C1CC1 | 0.316 | 2.51 | 2 | 0.794 | 1.26 | 1.26 | 0.316 | 1 | 0.2 | 0.398 | > 100 | 7.94
Cc1nc(N2CC(C)OC(C)C2)sc1C(=O)Nc1ccc2c(c1)OCO2 (centres undefined) | 2 | 3.98 | 2.51 | > 50.1 | 6.31 | 7.94 | 3.16 | > 50.1 | 39.8 | > 39.8 | > 100 | 39.8
